Experimental data from patent US5725870A, “Methods, composites and articles for contraception” (priority 1996, dated 1998).
Values after ≈ are worked out from the molar mass of the structure shown. Values joined by “and” are separate entries in the source; they are usually repeats but may differ in a detail not shown here. Equal values may be shown once. Read-outs that look alike come from different tables or passages of the source.

What was measured:
HIV = experiment: Activity against HIV, test not described; assay type: cell-based
Text: (§1) and may be prepared by the H2 O2 oxidation of cysteamine (Mills, Jr. et al, J. Am. Chem. Soc., vol. 62, 1173 (1940); and Barnett, J. Chem. Soc., 1944, 5).

[1] = Cytotoxicity in HIV experiments, test not described; assay type: cell-based
Text: as §1

epithelial fibroblasts = settings: cited from earlier work
HTLVIIIB = settings: 100 μM, added twice-daily, CEM-T4 lymphocytes; cited from earlier work
[2] = molecular target: T1, sheep testicular hyaluronidase (Ovis aries, UniProt A0ACI6R774); experiment: Hyaluronidase inhibition assay; assay type: biochemical; settings: for Absorbance at 545 nm, Reaction: blank 0.0463
T1 construct: soluble form of GPI-anchored sperm protein
T1 sequence (A0ACI6R774 34-551): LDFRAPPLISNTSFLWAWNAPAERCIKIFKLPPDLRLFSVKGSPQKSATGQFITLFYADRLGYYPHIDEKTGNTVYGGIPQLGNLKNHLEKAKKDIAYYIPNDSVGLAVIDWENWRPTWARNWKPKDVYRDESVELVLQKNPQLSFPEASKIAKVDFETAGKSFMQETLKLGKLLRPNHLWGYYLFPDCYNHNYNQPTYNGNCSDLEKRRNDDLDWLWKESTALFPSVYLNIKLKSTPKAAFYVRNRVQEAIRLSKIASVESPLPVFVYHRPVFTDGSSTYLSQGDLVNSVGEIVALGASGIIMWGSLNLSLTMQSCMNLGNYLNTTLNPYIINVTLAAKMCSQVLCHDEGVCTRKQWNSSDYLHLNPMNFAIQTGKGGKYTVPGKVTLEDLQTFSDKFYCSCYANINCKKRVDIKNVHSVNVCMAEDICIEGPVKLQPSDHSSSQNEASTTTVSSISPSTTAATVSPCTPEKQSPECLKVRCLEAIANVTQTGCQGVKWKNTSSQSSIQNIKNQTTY
Method: Hyaluronidase activity is quantified by measuring the extent of hyaluronic acid hydrolysis. This is measured by determining the concentration of N-acetylglucosamine-reactive material, resulting from enzyme action.
Reaction mixtures contain the following, in a total volume of 0.25 ml: 0.1M sodium acetate, containing 0.15M NaCl, pH 5.5 (Acetate buffer); 7.2 Units sheep testicular hyaluronidase (Sigma, Type III; cat. no. H-2251), from a stock solution dissolved in the Acetate buffer; 0.3 mg/ml hyaluronic acid (Sigma, from bovine vitreous humor, cat-no. H-7630).
The test compound is screened at a concentration of 1 mg/ml, unless aqueous solubility is limited. The enzyme is preincubated with the test agent for 10 minutes prior to starting the reaction by adding hyaluronic acid. Enzyme reactions are determined by the method of Aronson and Davidson (J. Biol. Chem., vol. 242, pp. 437-440 (1967)). Incubations are carried out for 30 minutes at ambient temperature. Reaction product is determined colorimetrically after reaction with p-dimethylaminobenzaldehyde (Reissig et al., J. Biol. Chem., vol. 217, pp. 959-966 (1955)). The absorbance of the resultant adduct is immediately determined at 545 nm.
Differences are determined between absorbencies for reactions run in the presence and absence of hyaluronidase (blank, in which hyaluronidase is added after terminating reaction). This is compared to a standard curve of known amounts of N-acetylglucosamine that were treated identically to enzyme reaction mixtures, and converted to μmole equivalents of N-acetylglucosamine. The data are reported as % inhibition, compared to control. A dose-response curve is generated at several concentrations of test compound if significant inhibition is obtained at the screening concentration.
(§2) IC50 values (those concentrations of inhibitor that produce 50% inhibition under the conditions of the assay) are determined by analyzing enzyme activity as a function of inhibitor concentration, with curve-fitting software (TableCurve 2D, version 3.02; Jandel Scientific).

Human acrosin = molecular target: T2, Human acrosin (Homo sapiens, UniProt P10323); experiment: Acrosin inhibition assay; assay type: biochemical; settings: for Acrosin Activity: control 5.4 ± 0.14; for Acrosin Inhibitor (active yes/no): screened at 1 mg/ml
T2 construct: human acrosin is isolated from washed spermatozoa from frozen semen; from tissue; host or cells: washed human spermatozoa from frozen semen; acid extract, ultrafiltration, Sephadex G-150 pool
Method: Human acrosin activity is measured by following the progression of hydrolysis of N-α-benzoyl-L-arginine ethyl ester (BAEE) spectrophotometrically at 253 nm. Enzyme isolation, partial purification and measurement are carried out by methods described in detail by Anderson et al. (Biochem. J., vol. 199, pp. 307-316 (1981)). Briefly, human acrosin is isolated from washed spermatozoa from frozen semen by extraction with 66 mM acetic acid, pH 2.8. The extract is concentrated by ultrafiltration (Amicon PM 10) and applied to a column that contains Sephadex G-150 (superfine); elution is carried out with 55 mM acetic acid that contains 0.1M NaCl. The eluted volume that contains acrosin activity is pooled and used as the source of enzyme.
Enzyme reaction mixtures contain the following: 50 mM sodium phosphate, pH 7.5 (Anderson et al, Arch. Biochem. Biophys., vol. 241, pp. 509-520 (1985)); Enzyme-containing protein (3-5 mIU, where 1 mIU is the amount of enzyme required to hydrolyze 1 nmole BAEE per min); 0.05 mM BAEE; with or without inhibitor, in a total volume of 1.0 ml.
The test compound is screened at a concentration of 1 mg/ml, unless solubility is limited. The enzyme is preincubated with the test agent for 5 minutes prior to starting the reaction by adding BAEE. Reaction blanks, in which either substrate or enzyme has been eliminated, are run in parallel to the reactions.
The rate of change in absorbance at 253 nm is determined. The change in absorbance that corresponds to 1 μmole of BAEE (in a total volume of 1.0 ml) hydrolyzed is taken as 1.15.
The enzyme activity in the presence of each agent is compared with that for the control reaction (no test agent added). The data are reported as % inhibition. […] A dose-response curve is generated at several concentrations of test compound if significant inhibition is obtained at the screening concentration.
Reversibility of acrosin inhibition is determined by the method of Ackermann and Potter (Proc. Soc. Exp. Biol. Med., vol. 72, pp. 1-9 (1949)), in which the level of inhibited enzyme activity is determined in the presence of different amounts of enzyme.
as §2

Lactobacillus gasseri = experiment: Assay of vaginal lactobacillus growth; assay type: cell-based
Method: Cysteamine was screened with regard to its potential cytotoxicity toward normal vaginal flora. Growth of vaginal lactobacillus was used as a measure of this effect.
Lactobacillus gasseri, obtained from the American Type Culture Collection (Rockville, Md.) is cultured under anaerobic conditions at 37° in the presence of test agent or no additions (control). Beginning at 120 minutes after the start of incubation and at 20 minute intervals, for a total length of 240 minutes, samples are removed from the incubation flasks, and the absorbance of each suspension at 550 nm is determined, as an estimate of cell density. Data are fit to the equation, Ln (Absorbance)=a+b (Time), where a is the absorbance at 0 time, b is the slope of the curve, and time is measured in minutes. The doubling time (TD) is calculated from the equation TD =(Ln 2)/b. Values are given as the doubling time of bacterial growth, together with the 90% confidence limits. Inhibition of bacterial growth by a test agent can be directly calculated from the reciprocal values of the doubling time (i.e., 75% inhibition of the reciprocal of the calculated doubling time is equal to 75% inhibition of bacterial growth).
Dose-response curves are produced by determining the doubling time of the culture in the presence of each of several concentrations of test agent, the exact range of which is determined by the results of the screening test that is described above. The concentration of test agent that inhibits the growth of lactobacillus by 50% (IC50) is determined from the calculated doubling time at each concentration of test agent, with curve-fitting software (TableCurve 2D, version 3.02, Jandel Scientific).

motile spermatozoa = experiment: Assessment of spermicidal activity (sperm motility, Sander and Cramer); assay type: cell-based
Method: The method is based on that originally described by Sander and Cramer (F. V. Sander and S. D. Cramer. Human Fertil., vol. 6, pp. 134 (1941)). Apparent spermicidal activity of the test agents are compared to that of a control preparation of nonoxynol-9 (N9).
For the screening of spermicidal activity of a test agent, a solution of 50 mg/ml is prepared in 0.9% NaCl. This solution is adjusted to pH 7.0 with either HCl or NaOH and is further diluted in 0.9% NaCl to concentrations of 25 mg/ml, 10 mg/ml, 5 mg/ml, and 2.5 mg/ml. N9 is prepared as a solution of 100 μg/ml in 0.9% NaCl.
The agents are tested by mixing 40 μl of freshly ejaculated semen with 200 μl of test agent at each concentration. Just prior to and 30 seconds after mixing, the percentage of motile spermatozoa is determined by microscopic observation (400×). If 90-100% inhibition of motility is obtained at the lowest concentration tested, the experiment is repeated with a different range of concentrations, the highest concentration being 2.5 mg/ml. A dose-response curve is constructed.

[3] = tested on: cystine crystals found in the corneas; settings: topical aqueous 0.1% and 0.5%; cited from earlier work
CEM-T4 lymphocytes = settings: 100 μM, added twice-daily; cited from earlier work
[4] = 1 mg/ml test agent, 10 min preincubation

T2 sequence (P10323 43-343 limits assumed): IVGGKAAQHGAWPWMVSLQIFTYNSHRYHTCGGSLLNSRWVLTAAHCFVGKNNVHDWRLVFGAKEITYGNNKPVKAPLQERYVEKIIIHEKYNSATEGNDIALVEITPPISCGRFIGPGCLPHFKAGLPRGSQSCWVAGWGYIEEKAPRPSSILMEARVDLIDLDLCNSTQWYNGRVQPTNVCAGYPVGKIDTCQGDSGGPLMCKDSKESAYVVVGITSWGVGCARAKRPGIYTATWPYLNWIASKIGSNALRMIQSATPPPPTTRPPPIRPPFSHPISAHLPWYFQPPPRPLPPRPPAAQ
T2 sequence (P10323 20-42 partner limits assumed): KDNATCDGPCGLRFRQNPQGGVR

## NCCSSCCN [Cystamine]
HIV
  Activity against the HIV pathogen: substantial activity
[1]; 100 μM
  Cytotoxicity: little cytotoxicity

## NCCS [cysteamine, Cysteamine]
Epithelial fibroblasts; 10 μM
  Cloning efficiency: severe loss in cloning efficiency
Epithelial fibroblasts; One hundred μM
  Cloning efficiency: zero
  Doubling time: two-fold increase
Epithelial fibroblasts; concentrations up to 10 μM
  Effect on growth rate: no effect on growth rate
HTLVIIIB
  Survival of treated cells, protection against HTLVIIIB: 133 % of control
[2]
  IC20: 87 µg/mL (≈ 1130 µM)
  IC80: 219 µg/mL (≈ 2840 µM)
[2]; [4]
  % Inhibition at 1 mg/ml (hyaluronidase): completely inhibit
  inhibition at 1000 µg/mL: 100%
[2]; cysteamine 1.6 μg/ml
  Absorbance at 545 nm, Reaction: 0.1892 and 0.1967
[2]; cysteamine 8.0 μg/ml
  Absorbance at 545 nm, Reaction: 0.1955 and 0.1853
[2]; cysteamine 40.0 μg/ml
  Absorbance at 545 nm, Reaction: 0.1775 and 0.1855
[2]; cysteamine 200 μg/ml
  Absorbance at 545 nm, Reaction: 0.0585 and 0.0656
[2]; cysteamine 1,000 μg/ml
  Absorbance at 545 nm, Reaction: 0.0068 and 0.0069
[2]; summary table
  Hyaluronidase Inhibitor (yes/no): Yes
HIV; other cell lines and other HIV strains
  Antiviral effect against HIV: substantiate the antiviral effect
Human acrosin; cysteamine 0.08 mg/ml
  Acrosin Activity: 5.2 ± 0.74 μmoles BAEE hydrolyzed/min/mg
Human acrosin; cysteamine 0.10 mg/ml
  Acrosin Activity: 3.8 ± 0.32 μmoles BAEE hydrolyzed/min/mg
Human acrosin; cysteamine 0.25 mg/ml
  Acrosin Activity: 3.4 ± 0.10 μmoles BAEE hydrolyzed/min/mg
Human acrosin; cysteamine 0.50 mg/ml
  Acrosin Activity: 2.2 μmoles BAEE hydrolyzed/min/mg
Human acrosin; cysteamine 0.8 mg/ml
  Acrosin Activity: 0.9 ± 0.28 μmoles BAEE hydrolyzed/min/mg
Human acrosin; cysteamine 1.0 mg/ml
  Acrosin Activity: 0.6 μmoles BAEE hydrolyzed/min/mg
Human acrosin; from fitted curve, above highest tested concentration
  3 Log reduction (99.9% inhibition) of acrosin: 3.3 mg/ml
Human acrosin; from fitted curve, above highest tested concentration, read-out: 3 Log reduction (99.9% inhibition) of acrosin
  IC99.9: 3270 µg/mL
Human acrosin; method of Ackermann and Potter, different amounts of enzyme
  Reversibility of acrosin inhibition: consistent with a reversible mechanism of inhibition
Human acrosin
  Acrosin Inhibitor (active yes/no): active
Human acrosin; listed as Cysteamine
  Acrosin Inhibitor (active yes/no): Yes
Human acrosin; summary table
  IC50: 4.8 mM
Lactobacillus gasseri
  % Inhibition at 5 mg/ml (growth of vaginal lactobacillus): no effect
Lactobacillus gasseri; listed as Cysteamine
  % Inhibition at 5 mg/ml (growth of vaginal lactobacillus): No inhibition
Lactobacillus gasseri; Lactobacillus gasseri, read-out: % Inhibition at 5 mg/ml (growth of vaginal lactobacillus)
  inhibition at 5000 µg/mL: 0%
Motile spermatozoa
  Spermicide (effect on sperm motility, in words): reduce sperm motility
Motile spermatozoa; listed as Cysteamine
  Spermicide (effect on sperm motility, in words): Yes
[1]
  Cellular toxicity: lack of cellular toxicity
[3]
  Reduction of corneal cystine crystals: effective in reducing the cystine crystals
  Tolerability in chronic topical use: well-tolerated
CEM-T4 lymphocytes
  Toxicity (cell survival): 120.8 % of control

## nonylphenoxypolyoxyethene glycol [nonoxynol-9, reference compound]
[2]; [4]
  % Inhibition at 1 mg/ml (hyaluronidase): 4%
Lactobacillus gasseri; Tested at 0.5 mg/ml
  % Inhibition (growth of vaginal lactobacillus): 60%
